# Test results taken from ChEMBL document CHEMBL1150644, “Corticatic acids D and E, polyacetylenic geranylgeranyltransferase type I inhibitors, from the marine sponge Petrosia corticata” (J Nat Prod, 2002).
# Key:
# [1] = Inhibition of Candida albicans GGTase 1 by streptavidin scintillation proximity assay
# [2] = system: Candida albicans; assay: Antimicrobial activity against Candida albicans; type: functional
smiles,measurement,setting,value
C#CC(O)/C=C/CCCCCC#CC/C=C\CCCCCCCCCCC/C=C\C#CC(=O)O (centres undefined) [CORTICATIC ACID A],IC50,[1],1.9 µM
same,MIC,[2],54 µM
C#C[C@H](O)/C=C/CCCCCC#C/C=C/C(O)CCCCCCCCCCC/C=C\C#CC(=O)O (some centres undefined) [CORTICATIC ACID D],IC50,[1],3.3 µM
C#C[C@H](O)/C=C/CCCCC/C=C\C/C=C\CCCCCCCCCCC/C=C\C#CC(=O)O [CORTICATIC ACID E],IC50,[1],7.3 µM
